# Data taken from PubChem BioAssay (NCI).
#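 Five compound concentrations were applied to cells in 96-well plates for 48 hours; endpoints were derived by simple linear interpolation of the resulting dose-response curve. GI50 = concentration required for 50% inhibition of growth. Definition used: TGI = concentration required for complete inhibition of growth.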
# Experiments:
# Assay in all cases: NCI-60 cell line screen, 48 h
# K-562 leukemia = tested on: K-562 leukemia
# NCI-H226 lung = tested on: NCI-H226 lung
# MOLT-4 leukemia = tested on: MOLT-4 leukemia
# TK-10 renal = tested on: TK-10 renal
# SK-OV-3 ovarian = tested on: SK-OV-3 ovarian
# SF-295 CNS = tested on: SF-295 CNS
# T-47D breast = tested on: T-47D breast
# COLO 205 colon = tested on: COLO 205 colon
# OVCAR-4 ovarian = tested on: OVCAR-4 ovarian
# EKVX NSCLC = tested on: EKVX NSCLC
Structure (SMILES),GI50 (K-562 leukemia) [µM],TGI (K-562 leukemia) [µM],GI50 (NCI-H226 lung) [µM],TGI (NCI-H226 lung) [µM],GI50 (MOLT-4 leukemia) [µM],TGI (MOLT-4 leukemia) [µM],GI50 (TK-10 renal) [µM],TGI (TK-10 renal) [µM],GI50 (SK-OV-3 ovarian) [µM],TGI (SK-OV-3 ovarian) [µM],GI50 (SF-295 CNS) [µM],TGI (SF-295 CNS) [µM],GI50 (T-47D breast) [µM],TGI (T-47D breast) [µM],GI50 (COLO 205 colon) [µM],TGI (COLO 205 colon) [µM],GI50 (OVCAR-4 ovarian) [µM],TGI (OVCAR-4 ovarian) [µM],GI50 (EKVX NSCLC) [µM],TGI (EKVX NSCLC) [µM]
Cc1ccc(C(=O)CN(/C=C/C(=O)C(F)(F)F)c2ccc(S(N)(=O)=O)cc2)cc1,39.3,> 100,> 100,> 100,44,> 100,44.5,> 100,> 100,> 100,43.8,> 100,70.1,> 100,> 100,> 100,> 100,> 100,55.2,> 100
Oc1cccnc1CN1CCCCC1,,> 100,,> 100,,> 100,,> 100,,> 100,,> 100,,> 100,,> 100,,> 100,,> 100
CN1C/C=C\CCOc2cccc(c2)-c2ccnc(n2)Nc2cccc(c2)C1,0.0931,6.21,0.0692,1.3,0.0371,0.874,0.0762,0.88,0.209,2.16,0.0616,1.1,0.0413,0.334,0.024,0.0762,0.113,1.88,0.0872,0.961
COc1cc(/C=C/c2cc(/C=C/c3ccc(O)c(OC)c3)n(C(=O)Nc3ccc(F)c(Cl)c3)n2)ccc1O,0.288,1.45,0.491,2.3,0.282,1.4,0.58,3.56,0.324,1.43,0.544,2.6,0.634,2.32,1.76,3.25,0.721,5.47,1.22,6.98
COc1ccc(-c2n[nH]nc2-c2cc(OC)c(OC)c(OC)c2)cc1,< 0.01,> 100,< 0.0225,82.7,0.0185,,,50.2,< 0.01,0.44,< 0.01,> 100,2.66,57.3,0.0358,0.132,< 0.0144,43.3,< 0.01,29.6
COc1cc2c3c(n(CCCNC(=O)OCC4c5ccccc5-c5ccccc54)c(=O)c2cc1OC)-c1cc2c(cc1/C3=C\CCNC(=O)OCC1c3ccccc3-c3ccccc31)OCO2,9.17,> 35.8,> 50,> 50,5.45,> 50,> 31.7,> 50,> 25.6,> 50,> 23.6,> 50,> 50,> 50,> 28,> 50,> 50,> 50,> 50,> 50
COc1ccc(Cn2cc3c(c2-c2ccccc2)CC(C)(C)c2cnoc2-3)cc1,0.377,> 100,4.19,> 100,2.82,> 100,2.91,> 100,4.09,> 100,0.732,11.6,2.51,> 100,1.65,5.1,5.23,> 100,1.99,> 100
C[C@@]12CC=C3c4nc(Nc5cccc(O)c5)sc4CC[C@]3(C)[C@H]1CC[C@]1(C)C(=O)CC[C@@H]21,2.53,> 100,2.86,8.94,,,2.18,6.44,4.81,28,2.49,7.92,2.61,8.3,2.17,4.38,2.76,> 100,5.93,83.3
CC(=O)CSCc1ccccn1,,82.3,,43.7,,61.4,,> 100,,> 100,,> 100,,> 100,,> 100,,> 100,,> 100
CC(C)(C)c1cc(C(C)(C)C)cc(S(=O)(=O)Nc2cc3ccccc3cc2C(=O)NCCN)c1,2.16,4.85,2.16,4.28,2.32,5.77,1.78,3.26,2.04,4.51,1.72,3.17,1.7,3.6,1.82,3.37,1.86,3.94,1.45,2.88
COc1cc2ncnc(Nc3ccc(C)c(O)c3)c2cc1OC,7.19,> 25,20.5,> 25,> 25,> 25,3.62,12,1.32,> 19.9,> 25,> 25,7.79,> 25,> 25,> 25,9.91,> 25,6.3,> 25
CN(C)C(=O)c1cc2cnc(Nc3ccc(-c4csc5c(=S)cc(N6CCOCC6)oc45)cc3)nc2n1C1CCCC1,0.939,> 50,0.405,> 11.9,0.244,> 50,0.987,> 50,2.28,> 50,0.672,> 13.5,0.198,> 50,0.214,,1.03,> 50,0.792,> 13.7
NCC1Nc2ccccc2[C@@H](O)C1O (stereo partly specified),,> 100,,> 100,,> 100,,> 100,,> 100,,> 100,,> 100,,> 100,,> 100,,> 100
COC(=O)C1=CNC=C(C(=O)OC)C1C1=CC(=O)C(C)=CC1=O,1.36,3.84,5.35,17.2,2.16,5.9,6.2,15.5,17.6,37.3,19.7,40.1,17.9,44.6,22.9,55.1,20.7,61.7,16.3,30
COC1=C(C)C(=O)c2c(c(COC(N)=O)c3n2CC2C3N2C)C1=O (stereo unspecified),,0.341,,0.337,,0.104,,0.0542,,0.167,,0.0261,,0.201,,0.119,,0.244,,0.376
O=S(=O)(N=S(c1ccccc1)c1ccccc1)c1ccccc1,,> 100,,> 100,,> 100,,> 100,,,,> 100,,> 100,,> 100,,,,> 100
N=C1C(c2nc3ccccc3s2)=C(O)CN1c1cc(C(F)(F)F)ccc1Cl,3.61,21.3,2.75,28.5,16.3,> 100,52.1,> 100,51.4,> 100,16.2,> 100,48.1,> 100,30.8,> 100,> 100,> 100,62.7,> 100
COc1ccc(/C=C/c2ccnc3ccccc23)c(OC)c1,,> 10,,> 10,,> 10,,> 10,,> 10,,> 10,,> 10,,> 10,,> 10,,> 10
COc1cc(-c2ccc3c(c2)NC(=O)/C3=C\c2ccc[nH]2)ccc1O,< 0.0118,> 50,2.06,> 50,0.032,> 22.1,1.72,> 50,0.0341,> 50,0.0479,> 22.6,0.219,> 50,0.467,> 50,2.58,> 50,0.144,> 50
O=C(O)C1OC(n2cc(F)c(=O)[nH]c2=O)CC1O (stereo unspecified),,> 100,,> 100,,> 56.2,,> 100,,> 100,,> 100,,> 100,,> 100,,> 100,,> 100
COc1nc2ccccc2cc1-c1nc2c(cnn2-c2ccc(Br)cc2)c(=O)[nH]1,0.0182,13.4,0.51,> 50,0.0879,> 50,0.21,8.8,0.0638,24.5,0.0195,1.62,0.0413,> 50,0.0545,,,> 50,0.0817,> 50
CC(=O)/C(C)=N/NC(=O)c1ccccc1O,,> 100,> 100,> 100,,> 100,> 100,> 100,> 100,> 100,> 100,> 100,,> 100,> 100,> 100,> 100,> 100,> 100,> 100
CN1CCN(CCCOc2ccc3nc(Nc4ccc(Cl)c(C(F)(F)F)c4)ccc3c2)CC1,2.4,5.78,22.2,57.1,8.2,24.3,18.3,32.8,18.2,33,14.3,29.7,17.6,37.3,9.79,24.4,12.7,26.4,15,29.1
COC1=CC(=O)c2nc(-c3cccc(C)n3)[nH]c2C1=O,> 100,> 100,21.7,43.8,64.7,> 100,19.4,40.2,19.3,35.7,28.4,85.2,15.8,58.1,26.5,67.7,20.4,50.3,34.8,> 100
CCCN1CCC(=O)N(CCC(F)(F)C(F)(F)C(F)(F)C(F)(F)C(F)(F)C(F)(F)F)C1=S,,> 100,,> 100,,> 100,,> 100,,> 100,,> 100,,> 100,,> 100,,> 100,,> 100
C=C1C(=O)O[C@@H]2/C=C(\C)CC/C=C(/COC(C)=O)C[C@@H](OC(C)=O)[C@@H]12,,> 33.8,,64.1,,16.9,,23.2,,> 100,,> 100,,26.6,,14.1,,45.1,,25.8
Cc1cccc(N2CCN(C(=S)c3ccc4c(c3)OCO4)CC2)c1,0.521,> 100,41,> 100,15.8,> 100,,,2.19,83.3,0.409,> 100,0.934,> 100,0.582,4.9,67.7,> 100,7.12,> 100
COC(=O)[C@H](C)NC(=O)NC(=O)NC(=O)CI,4.16,17,19.8,44.9,2.21,5.17,16.9,30.6,19,39.1,17.4,33.1,7.46,32.2,2.54,6.49,11.6,24.4,17.5,32
Cc1cc(S(=O)(=O)Nc2nnc(-c3ccccc3)c(-c3ccccc3)n2)c(SCC(N)=O)cc1Cl,36.3,> 100,59.9,> 100,24.4,49.2,> 100,> 100,> 100,> 100,28.5,75,34.5,> 100,> 100,> 100,41.5,> 100,> 100,> 100
